# Where two headings read alike, the source gives them in different places.
# How the values were obtained:
# Micrococcus luteus B-109 = test: Agar-well diffusion, bactericidal activity; assay type: cell-based; details: Micrococcus luteus
# Method in brief: (§1)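 Bacteria spread on agar (BP medium; GYCa for X. campestris; pH 7.2–7.4) with 6-mm wells, each receiving 150 μL compound solution. Cultures grown at 28 °C; growth-inhibition zone width measured after 36–40 h.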
# [1] = system: Pectobacterium atrosepticum 1043; test: Agar-well diffusion, bactericidal activity; assay type: cell-based; details: Pectobacterium atrosepticum, 1043, 2 mM/L
# Method in brief: as §1
# [2] = system: Pectobacterium carotovorum subsp. carotovorum MI; test: Agar-well diffusion, bactericidal activity; assay type: cell-based; details: Pectobacterium carotovorum, 2 mM/L
# Method in brief: as §1
# [3] = system: Pseudomonas fluorescens EL-2.1; test: Agar-well diffusion, bactericidal activity; assay type: cell-based; details: Pseudomonas fluorescens, EL2.1, 2 mM/L
# Method in brief: as §1
# [4] = system: Xanthomonas campestris B-610; test: Agar-well diffusion, bactericidal activity; assay type: cell-based; details: Xanthomonas campestris
# Method in brief: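 Agar-well diffusion on GYCa agar (pH 7.2–7.4) seeded with bacterial suspension; 150 μL compound solution placed in 6-mm wells. Inhibition zone width measured after 36–40 h incubation.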
# [5] = system: five representative phytopathogens; test: Agar-well diffusion, bactericidal activity over the panel of phytopathogens; assay type: cell-based
# Method in brief: as §1
# [6] = system: Fusarium oxysporum IBPPM 543; test: Mycelial radial growth inhibition; assay type: cell-based; details: Fusarium oxysporum; for inhibition of growth at 1 µM: 1 nmol/mL; for inhibition of growth at 1 µM / inhibition of growth at 5 µM / inhibition of growth at 20 µM / inhibition of growth at 40 µM: read-out: Inhibition value, I (%); for inhibition of growth at 5 µM: 5 nmol/mL; for inhibition of growth at 20 µM: 20 nmol/mL; for inhibition of growth at 40 µM: 40 nmol/mL
# Method in brief: (§2)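 Compounds mixed into molten GPY agar at various concentrations; centre inoculated with a 5-mm mycelial plug from 10-day cultures and incubated at 27 °C. Colony diameter compared with untreated control until control plate was covered (usually 12 days); ≥4 replicates in two experiments.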
# [7] = system: Phytophthora cactorum VKM F-985; test: Mycelial radial growth inhibition; assay type: cell-based; details: Phytophthora cactorum; for inhibition of growth at 1 µM: 1 nmol/mL; for inhibition of growth at 1 µM / inhibition of growth at 5 µM / inhibition of growth at 15 µM / inhibition of growth / inhibition of growth at 40 µM: read-out: Inhibition value, I (%); for inhibition of growth at 5 µM: 5 nmol/mL; for inhibition of growth at 15 µM: 15 nmol/mL; for inhibition of growth: 27 nmol/mL; for inhibition of growth at 40 µM: 40 nmol/mL
# Method in brief: as §2
# [8] = Table S3, read-out: Inhibition zone width (mm), not less
# [9] = IBPPM543, 72 h, age of the fungus 3 days
# [10] = IBPPM543, 120 h, age of the fungus 5 days
# [11] = IBPPM543, 168 h, age of the fungus 7 days
# [12] = IBPPM543, 216 h, age of the fungus 9 days
# [13] = 120 h, age of the fungus 5 days
# [14] = 168 h, age of the fungus 7 days
# [15] = 216 h, age of the fungus 9 days
compound,measurement,setting,value
"O=C(C[n+]1ccccc1)NN=C1C(=O)N(Cc2c(F)cccc2Cl)c2ccc(F)cc21.[Cl-] [Compound 5b, 1-(2-(2-(5-Fluoro-1-(6-chloro-2-fluorobenzyl)-2-oxoindolin-3-ylidene)hydrazinyl)-2-oxoethyl)pyridin-1-ium chloride]",zone of inhibition at 2000 µM,"Micrococcus luteus B-109; B109, 2 mM/L, average of 3 experiments, read-out: width of the inhibition zone (mm), M. luteus",4 mm
same,zone of inhibition at 2000 µM,"Micrococcus luteus B-109; B109, Table S3, 2 mM/L, read-out: Inhibition zone width (mm), not less",≥ 4 mm
same,zone of inhibition at 2000 µM,"[1]; average of 3 experiments, read-out: width of the inhibition zone (mm), P. atrosepticum",4 mm
same,zone of inhibition at 2000 µM,[1]; [8],≥ 4 mm
same,zone of inhibition at 2000 µM,"[2]; average of 3 experiments, read-out: width of the inhibition zone (mm), P. carotovorum subsp. carotovorum",3 mm
same,zone of inhibition at 2000 µM,[2]; [8],≥ 3 mm
same,zone of inhibition at 2000 µM,"[3]; average of 3 experiments, read-out: width of the inhibition zone (mm), Ps. fluorescens",2.5 mm
same,zone of inhibition at 2000 µM,[3]; [8],≥ 2 mm
same,zone of inhibition at 2000 µM,"[4]; B610, 2 mM/L, average of 3 experiments, read-out: width of the inhibition zone (mm), X. campestris",3 mm
same,zone of inhibition at 2000 µM,"[4]; B610, Table S3, 2 mM/L, read-out: Inhibition zone width (mm), not less",≥ 3 mm
same,zone of inhibition at 2000 µM,"[5]; 36 h, 2 mM solutions, dependent on the test system used, read-out: inhibition zone width (mm), range over the test systems",2.5 to 4 mm
same,bactericidal activity,[5]; Table S2,moderate bactericidal activity
same,inhibition of growth at 1 µM,[6]; [9],9%
same,inhibition of growth at 5 µM,[6]; [9],33%
same,inhibition of growth at 20 µM,[6]; [9],41%
same,inhibition of growth at 40 µM,[6]; [9],53%
same,EC50,"[6]; IBPPM543, 120 h, day 5, read-out: EC50, µg/mL at Day 5, F. oxysporum",14.8 µg/mL
same,inhibition of growth at 1 µM,[6]; [10],10%
same,inhibition of growth at 5 µM,[6]; [10],34%
same,inhibition of growth at 20 µM,[6]; [10],42%
same,inhibition of growth at 40 µM,[6]; [10],56%
same,inhibition of growth at 1 µM,[6]; [11],9%
same,inhibition of growth at 5 µM,[6]; [11],25%
same,inhibition of growth at 20 µM,[6]; [11],34%
same,inhibition of growth at 40 µM,[6]; [11],40%
same,inhibition of growth at 1 µM,[6]; [12],0%
same,inhibition of growth at 5 µM,[6]; [12],19%
same,inhibition of growth at 20 µM,[6]; [12],28%
same,inhibition of growth at 40 µM,[6]; [12],31%
same,inhibition of growth at 1 µM,"[7]; 72 h, age of the fungus 3 days",18%
same,inhibition of growth at 5 µM,"[7]; 72 h, age of the fungus 3 days",27%
same,inhibition of growth at 15 µM,"[7]; 72 h, age of the fungus 3 days",30%
same,inhibition of growth,"[7]; 72 h, age of the fungus 3 days",33%
same,inhibition of growth at 40 µM,"[7]; 72 h, age of the fungus 3 days",44%
same,EC50,"[7]; 120 h, day 5, read-out: EC50, µg/mL at Day 5, P. cactorum",18.2 µg/mL
same,inhibition of growth at 1 µM,[7]; [13],26%
same,inhibition of growth at 5 µM,[7]; [13],35%
same,inhibition of growth at 15 µM,[7]; [13],38%
same,inhibition of growth,[7]; [13],43%
same,inhibition of growth at 40 µM,[7]; [13],50%
same,inhibition of growth at 1 µM,[7]; [14],11%
same,inhibition of growth at 5 µM,[7]; [14],24%
same,inhibition of growth at 15 µM,[7]; [14],29%
same,inhibition of growth,[7]; [14],31%
same,inhibition of growth at 40 µM,[7]; [14],44%
same,inhibition of growth at 1 µM,[7]; [15],6%
same,inhibition of growth at 5 µM,[7]; [15],16%
same,inhibition of growth at 15 µM,[7]; [15],19%
same,inhibition of growth,[7]; [15],26%
same,inhibition of growth at 40 µM,[7]; [15],39%
same,melting point,,152 to 153 °C
